Assay results as given in EP4610269A1, “UROKINASE PLASMINOGEN ACTIVATOR SURFACE RECEPTOR (UPAR) LIGANDS FOR DIAGNOSTIC OR THERAPEUTIC USE” (3B Pharmaceuticals GmbH, priority 2024, dated 2025).
Like-named read-outs stand apart in the source and are kept apart here. Where a SMILES comes first, the peptide text is derived from it. Bridges are numbered along the chain shown (N, C = ends). [ ]: non-standard residue; d: D form. The star is where a group is joined. GdDOTA = Gd(III) DOTA conjugate, O=C([O-])CN1CCN(CC(=O)[O-])CCN(CC(=O)*)CCN(CC(=O)[O-])CC1.[Gd+3]; X4 = C[N+](C)(CCCC[C@H](NC(=O)CN1CCN(CC(=O)O)CCN(CC(=O)O)CCN(CC(=O)O)CC1)C(=O)*)CCCS(=O)(=O)[O-]; DOTA = O=C(O)CN1CCN(CC(=O)O)CCN(CC(=O)*)CCN(CC(=O)O)CC1; X8 = O=C(CN(CC(=O)NC(CO)(CO)CO)CC(=O)*)NC(CO)(CO)CO; Pro(trans-4-F) = O=C(O)[C@@H]1C[C@@H](F)CN1; Oic = O=C(O)[C@@H]1C[C@@H]2CCCC[C@@H]2N1; Phe(4-Cl) = N[C@@H](Cc1ccc(Cl)cc1)C(=O)O; Pro(cis-4-F) = O=C(O)[C@@H]1C[C@H](F)CN1; Phe(2-Cl) = N[C@@H](Cc1ccccc1Cl)C(=O)O; Hyp = O=C(O)[C@@H]1C[C@@H](O)CN1; 3Pal = N[C@@H](Cc1cccnc1)C(=O)O; Pentanoyl(4-Me) = CC(C)CCC(=O)*; Cit = NC(=O)NCCC[C@H](N)C(=O)O; Butoxycarbonyl = CCCCOC(=O)*; Tle = CC(C)(C)[C@H](N)C(=O)O; Orn = NCCC[C@H](N)C(=O)O; Nva = CCC[C@H](N)C(=O)O; Hexanoyl = CCCCCC(=O)*; Pentanoyl = CCCCC(=O)*

Tests used:
[1] = target: T1, uPAR-expressing HEC-265 human endometrial adenocarcinoma cells (Homo sapiens, UniProt Q03405); assay: Competitive FACS binding assay; conditions: pIC50 category of FACS binding
T1 construct: Cell surface uPAR-expressing HEC-265 human endometrial adenocarcinoma cells; host or cells: HEC-265
T1 sequence (Q03405 23-335): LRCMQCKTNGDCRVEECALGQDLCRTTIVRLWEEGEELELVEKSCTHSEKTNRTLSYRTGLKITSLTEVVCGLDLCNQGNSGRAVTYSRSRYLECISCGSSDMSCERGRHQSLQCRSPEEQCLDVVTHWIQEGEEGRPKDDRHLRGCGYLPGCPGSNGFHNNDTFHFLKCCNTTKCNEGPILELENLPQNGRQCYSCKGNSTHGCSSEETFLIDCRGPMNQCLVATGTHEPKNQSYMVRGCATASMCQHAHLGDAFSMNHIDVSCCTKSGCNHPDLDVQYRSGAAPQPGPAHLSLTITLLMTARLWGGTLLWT
How it was run: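 HEC-265 cells incubated 1 h at 4 °C with 10 nM biotinylated uPAR peptide tracer plus increasing test compound, then stained with APC-streptavidin on ice. Median APC fluorescence by flow cytometry; 4PL fit gives pIC50.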

[2] = target: T2, human uPAR (uPAR-Fc) (Homo sapiens, UniProt Q03405); assay: Surface plasmon resonance (SPR) assay, single cycle kinetics; type: binding; conditions: pKD category for uPAR SPR activity assay, uPAR-Fc on Protein A-Chip, 25°C; for Kd: read-out: pKD CAT (converted)
T2 construct: comprising amino acids Leu23-Arg303 according to UniProt entry Q03405.1; purchased R&D Systems 10378-UK-100
T2 sequence (Q03405 23-303): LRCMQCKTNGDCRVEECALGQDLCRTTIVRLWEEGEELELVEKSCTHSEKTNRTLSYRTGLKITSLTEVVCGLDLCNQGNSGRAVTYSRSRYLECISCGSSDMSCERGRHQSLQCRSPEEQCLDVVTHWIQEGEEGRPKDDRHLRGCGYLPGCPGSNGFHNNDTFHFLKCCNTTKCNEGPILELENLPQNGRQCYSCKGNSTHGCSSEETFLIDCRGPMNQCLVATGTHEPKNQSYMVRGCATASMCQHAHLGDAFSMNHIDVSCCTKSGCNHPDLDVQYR
How it was run: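 uPAR-Fc (Leu23-Arg303 extracellular domains, human IgG1 Fc) captured on Protein A chip to ~2000 RU; single-cycle kinetics at 25°C in HEPES running buffer pH 7.4 with 0.1% DMSO. KD from double-referenced sensorgrams fitted to 1:1 Langmuir model, reported as pKD.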

Molecule: CCCCOC(=O)N[C@H]1CSSC[C@@H](C(N)=O)NC(=O)[C@H](CCC)NC(=O)[C@H]([C@@H](C)CC)NC(=O)[C@@H]2C[C@@H](O)CN2C(=O)[C@@H]2C[C@H](F)CN2C(=O)[C@H](Cc2ccc(Cl)cc2)NC(=O)[C@H](Cc2ccc(O)cc2)NC(=O)[C@H](CCCCNC(=O)CN2CCN(CC(=O)O)CCN(CC(=O)O)CCN(CC(=O)O)CC2)NC(=O)[C@H](CCCNC(N)=O)NC1=O [UPAR-304, Butoc-[Cys-Cit-Lys(DOTA)-Tyr-Pcf-4Cfp-Hyp-Ile-Nva-Cys]-NH2] (Butoxycarbonyl-C[Cit]K(DOTA)Y[Phe(4-Cl)][Pro(cis-4-F)][Hyp]I[Nva]C-NH2; disulfide 1-10)
- IC50 [1]: ≤ 10 nM
- Kd [2]: < 1.58 nM

Molecule: CCCCOC(=O)N[C@H]1CSSC[C@@H](C(N)=O)NC(=O)[C@H](CCC)NC(=O)[C@H]([C@@H](C)CC)NC(=O)[C@@H]2C[C@@H](O)CN2C(=O)[C@@H]2C[C@H](F)CN2C(=O)[C@H](Cc2ccccc2)NC(=O)[C@H](Cc2ccc(O)cc2)NC(=O)[C@H](CCCCNC(=O)[C@H](CCCC[N+](C)(C)CCCS(=O)(=O)[O-])NC(=O)CN2CCN(CC(=O)O)CCN(CC(=O)O)CCN(CC(=O)O)CC2)NC(=O)[C@H]([C@@H](C)O)NC1=O [UPAR-422, Butoc-[Cys-Thr-Lys(DOTA-Kzw)-Tyr-Phe-4Cfp-Hyp-Ile-Nva-Cys]-NHz] (Butoxycarbonyl-CTK(X4)YF[Pro(cis-4-F)][Hyp]I[Nva]C-NH2; disulfide 1-10)
- IC50 [1]: ≤ 10 nM
- Kd ([2]; single cycle kinetics): < 1.58 nM

Molecule: CC[C@H](C)[C@@H]1NC(=O)[C@@H](C)NC(=O)[C@@H]2CCCN2C(=O)[C@H](Cc2ccc(O)cc2)NC(=O)[C@H](Cc2ccc(O)cc2)NC(=O)[C@H](CCC(N)=O)NC(=O)[C@H](CCCNC(N)=O)NC(=O)[C@@H](NC(=O)CCC(C)C)CSSC[C@@H](C(N)=O)NC(=O)[C@H](CC(C)C)NC1=O [UPAR-343, iHex-[Cys-Cit-Gln-Tyr-Tyr-Pro-ala-Ile-Leu-Cys]-NH2] ({Pentanoyl(4-Me)}-C[Cit]QYYP[dA]ILC-NH2; disulfide 1-10)
- IC50 [1]: 12.6 to 31.6 nM
- Kd [2]: 10 to 100 nM

Molecule: CC(C)CCC(=O)N[C@H]1CSSC[C@@H](C(N)=O)NC(=O)[C@H](CC(C)C)NC(=O)[C@H](C(C)(C)C)NC(=O)[C@@H](C)NC(=O)[C@@H]2CCCN2C(=O)[C@H](Cc2ccccc2)NC(=O)[C@H](Cc2ccc(O)cc2)NC(=O)[C@H](CCC(N)=O)NC(=O)[C@H](CCCNC(N)=O)NC1=O [UPAR-201, iHex-[Cys-Cit-Gln-Tyr-Phe-Pro-ala-Tle-Leu-Cys]-NH2] ({Pentanoyl(4-Me)}-C[Cit]QYFP[dA][Tle]LC-NH2; disulfide 1-10)
- IC50 [1]: 39.8 to 100 nM
- Kd [2]: 10 to 100 nM

Molecule: CC[C@H](C)[C@@H]1NC(=O)[C@@H](C)NC(=O)[C@@H]2CCCN2C(=O)[C@H](Cc2ccccc2)NC(=O)[C@H](Cc2ccc(O)cc2)NC(=O)[C@H](CCC(N)=O)NC(=O)[C@H](C)NC(=O)[C@@H](NC(=O)CCC(C)C)CSSC[C@@H](C(N)=O)NC(=O)[C@H](CC(C)C)NC1=O [UPAR-168, iHex-[Cys-Ala-Gln-Tyr-Phe-Pro-ala-Ile-Leu-Cys]-NH2] ({Pentanoyl(4-Me)}-CAQYFP[dA]ILC-NH2; disulfide 1-10)
- IC50 [1]: ≤ 10 nM
- Kd [2]: < 1.58 nM

Molecule: CCCCCC(=O)N[C@H](C(=O)N[C@@H](CC(C)C)C(=O)N[C@H]1CSSC[C@@H](C(N)=O)NC(=O)[C@H](CC(C)C)NC(=O)[C@H]([C@@H](C)CC)NC(=O)[C@H](C)NC(=O)[C@@H]2CCCN2C(=O)[C@H](Cc2ccccc2)NC(=O)[C@H](Cc2ccc(O)cc2)NC(=O)[C@H](CC(C)C)NC(=O)[C@H](CC(=O)O)NC1=O)[C@@H](C)O [UPAR-318, Hex-Thr-Leu-[Cys-Asp-Leu-Tyr-Phe-Pro-Ala-Ile-Leu-Cys]-NH2] (Hexanoyl-TLCDLYFPAILC-NH2; disulfide 3-12)
- IC50 [1]: ≤ 10 nM
- Kd [2]: < 1.58 nM

Molecule: CC[C@H](C)[C@@H]1NC(=O)[C@@H](C)NC(=O)[C@@H]2CCCN2C(=O)[C@H](Cc2ccccc2)NC(=O)[C@H](Cc2ccc(O)cc2)NC(=O)[C@H](CCCCNC(C)=O)NC(=O)[C@H](CCCNC(N)=O)NC(=O)[C@@H](NC(=O)CCC(C)C)CSSC[C@@H](C(N)=O)NC(=O)[C@H](CC(C)C)NC1=O [UPAR-413, iHex-[Cys-Cit-Lys(Ac)-Tyr-Phe-Pro-ala-Ile-Leu-Cys]-NH2] ({Pentanoyl(4-Me)}-C[Cit]K(Ac)YFP[dA]ILC-NH2; disulfide 1-10)
- IC50 [1]: ≤ 10 nM
- Kd ([2]; single cycle kinetics): < 1.58 nM

Molecule: Pent-[Cys-Cit-Lys(GdDOTA)-Tyr-Phe-Pro-4Tfp-Ile-Nva-Cys]-NH2 (Pentanoyl-C[Cit]K(GdDOTA)YFP[Pro(trans-4-F)]I[Nva]C-NH2; disulfide 1-10; not fully specified; also: Gd(III) complexed by DOTA) [UPAR-435]
- pIC50 CAT [1]: A (pIC50 values ≥8.0)
- pKD CAT ([2]; single cycle kinetics): A (pKD values ≥ 8.8)

Molecule: CCCCC(=O)N[C@H]1CSSC[C@@H](C(N)=O)NC(=O)[C@H](CCC)NC(=O)[C@H]([C@@H](C)CC)NC(=O)[C@@H]2C[C@@H](O)CN2C(=O)[C@@H]2CCCN2C(=O)[C@H](Cc2ccccc2)NC(=O)[C@H](Cc2ccccc2Cl)NC(=O)[C@H](CCC(N)=O)NC(=O)[C@H](CCCNC(=N)N)NC1=O [UPAR-395, Pent-[Cys-Arg-Gln-Ocf-Phe-Pro-Hyp-Ile-Nva-Cys]-NH2] (Pentanoyl-CRQ[Phe(2-Cl)]FP[Hyp]I[Nva]C-NH2; disulfide 1-10)
- IC50 [1]: ≤ 10 nM
- Kd ([2]; single cycle kinetics): < 1.58 nM

Molecule: CC[C@H](C)[C@@H]1NC(=O)[C@@H](C)NC(=O)[C@@H]2CCCN2C(=O)[C@H](Cc2ccccc2)NC(=O)[C@H](Cc2ccc(O)cc2)NC(=O)[C@H](CCCNC(=N)N)NC(=O)[C@H](CCCNC(N)=O)NC(=O)[C@@H](NC(=O)CCC(C)C)CSSC[C@@H](C(N)=O)NC(=O)[C@H](CC(C)C)NC1=O [UPAR-160, iHex-[Cys-Cit-Arg-Tyr-Phe-Pro-ala-Ile-Leu-Cys]-NH2] ({Pentanoyl(4-Me)}-C[Cit]RYFP[dA]ILC-NH2; disulfide 1-10)
- IC50 [1]: ≤ 10 nM
- Kd [2]: < 1.58 nM

Molecule: CCCCC(=O)N[C@H]1CSSC[C@@H](C(N)=O)NC(=O)[C@H](CCC)NC(=O)[C@H]([C@@H](C)CC)NC(=O)[C@@H]2C[C@@H]3CCCC[C@@H]3N2C(=O)[C@@H]2CCCN2C(=O)[C@H](Cc2ccccc2)NC(=O)[C@H](Cc2ccc(O)cc2)NC(=O)[C@H](CCC(N)=O)NC(=O)[C@H](CCCNC(=N)N)NC1=O [UPAR-190, Pent-[Cys-Arg-Gln-Tyr-Phe-Pro-Oic-Ile-Nva-Cys]-NH2] (Pentanoyl-CRQYFP[Oic]I[Nva]C-NH2; disulfide 1-10)
- IC50 [1]: 12.6 to 31.6 nM
- Kd [2]: < 1.58 nM

Molecule: CC[C@H](C)[C@@H]1NC(=O)[C@@H](C)NC(=O)[C@@H]2CCCN2C(=O)[C@H](Cc2ccccc2)NC(=O)[C@H](Cc2cccnc2)NC(=O)[C@H](CCC(N)=O)NC(=O)[C@H](CCCNC(N)=O)NC(=O)[C@@H](NC(=O)CCC(C)C)CSSC[C@@H](C(N)=O)NC(=O)[C@H](CC(C)C)NC1=O [UPAR-393, iHex-[Cys-Cit-Gln-Mpa-Phe-Pro-ala-Ile-Leu-Cys]-NH2] ({Pentanoyl(4-Me)}-C[Cit]Q[3Pal]FP[dA]ILC-NH2; disulfide 1-10)
- IC50 [1]: ≤ 10 nM
- Kd ([2]; single cycle kinetics): < 1.58 nM

Molecule: CCCCC(=O)N[C@H]1CSSC[C@@H](C(N)=O)NC(=O)[C@H](CCC)NC(=O)[C@H]([C@@H](C)CC)NC(=O)[C@@H]2C[C@@H](O)CN2C(=O)[C@@H]2CCCN2C(=O)[C@H](Cc2ccccc2)NC(=O)[C@H](Cc2ccc(O)cc2)NC(=O)[C@H](CCCCNC(=O)CN2CCN(CC(=O)O)CCN(CC(=O)O)CCN(CC(=O)O)CC2)NC(=O)[C@H](CCCNC(=O)CN(CC(=O)NC(CO)(CO)CO)CC(=O)NC(CO)(CO)CO)NC1=O [UPAR-224, Pent-[Cys-Orn(Tris-Nta(Tris))-Lys(DOTA)-Tyr-Phe-Pro-Hyp-Ile-Nva-Cys]-NH2] (Pentanoyl-C[Orn](X8)K(DOTA)YFP[Hyp]I[Nva]C-NH2; disulfide 1-10)
- IC50 [1]: ≤ 10 nM
- Kd [2]: < 1.58 nM

Molecule: CCCCC(=O)N[C@H]1CSSC[C@@H](C(N)=O)NC(=O)[C@H](CCC)NC(=O)[C@H]([C@@H](C)CC)NC(=O)[C@H](CC(C)C)NC(=O)[C@@H]2CCCN2C(=O)[C@H](Cc2ccccc2)NC(=O)[C@H](Cc2ccc(O)cc2)NC(=O)[C@H](CCC(N)=O)NC(=O)[C@H](CCCNC(=N)N)NC1=O [UPAR-281, Pent-[Cys-Arg-Gln-Tyr-Phe-Pro-Leu-Ile-Nva-Cys]-NH2] (Pentanoyl-CRQYFPLI[Nva]C-NH2; disulfide 1-10)
- IC50 [1]: ≤ 10 nM
- Kd [2]: < 1.58 nM

Molecule: CC[C@H](C)[C@@H]1NC(=O)[C@H](C)NC(=O)[C@@H]2CCCN2C(=O)[C@H](Cc2ccccc2)NC(=O)[C@H](Cc2ccc(O)cc2)NC(=O)[C@H](CCSC)NC(=O)[C@H](CCCNC(=N)N)NC(=O)[C@@H](NC(=O)[C@H](CC(C)C)NC(=O)[C@H](CC(=O)O)NC(=O)[C@@H](N)CCSC)CSSC[C@@H](C(N)=O)NC(=O)[C@H](CC(C)C)NC1=O [UPAR-312, H-Met-Asp-Leu-[Cys-Arg-Met-Tyr-Phe-Pro-Ala-Ile-Leu-Cys]-NH2] (H-MDLCRMYFPAILC-NH2; disulfide 4-13)
- IC50 [1]: ≤ 10 nM
- Kd [2]: 1.58 to 10 nM
